Measurements: patent US20240166652A1, “MODULATORS OF THE INTEGRATED STRESS PATHWAY” (Calico Life Sciences LLC, priority 2017, published 2024)

System: ATF4 luciferase reporter in HEK293T cells
Experiment: ATF4-Luc assay (ATF4 luciferase reporter, tunicamycin-treated HEK293T cells)
Format: cell-based, human
Conditions: HEK293T cells carrying the ATF4 luciferase reporter, 1 μg/mL tunicamycin, 7 hours

## O=C(COc1ccc2c(c1)OC(F)(F)C(F)(F)O2)NC12CCC(NC(=O)COc3ccc(Cl)c(F)c3)(CC1)C(=O)N2 [Compound 689, 2-(4-chloro-3-fluorophenoxy)-N-(3-oxo-1-{2-[(2,2,3,3-tetrafluoro-2,3-dihydro-1,4-benzodioxin-6-yl)oxy]acetamido}-2-azabicyclo[2.2.2]octan-4-yl)acetamide]
Homo sapiens, HEK-293T
  EC50: 50 to 250 nM

## COc1ncc(OCC(=O)NC23CCC(NC(=O)COc4ccc(Cl)c(F)c4)(CC2)C(=O)N3)cn1 [Compound 690, 2-(4-chloro-3-fluorophenoxy)-N-(1-{2-[(2-methoxypyrimidin-5-yl)oxy]acetamido}-3-oxo-2-azabicyclo[2.2.2]octan-4-yl)acetamide]
Homo sapiens, HEK-293T
  EC50: 250 to 500 nM

## O=C(COn1nnc2cccnc21)NC12CCC(NC(=O)COc3ccc(Cl)c(F)c3)(CC1)C(=O)N2 [Compound 691, 2-(4-chloro-3-fluorophenoxy)-N-(3-oxo-1-{2-[(3H-[1,2,3]-triazolo[4,5-b]pyridin-3-yl)oxy]acetamido}-2-azabicyclo[2.2.2]octan-4-yl)acetamide]
Homo sapiens, HEK-293T
  EC50: > 2000 nM

## O=C(COc1ccc(Cl)c(F)c1)NC12CC(N(CCO)CCCOc3ccc(Cl)c(F)c3)(C1)C2 [Compound 692, 2-(4-chloro-3-fluorophenoxy)-N-(3-{[3-(4-chloro-3-fluorophenoxy)propyl](2-hydroxyethyl)amino}bicyclo[1.1.1]pentan-1-yl)acetamide]
Homo sapiens, HEK-293T
  EC50: 250 to 500 nM

## CN1Cc2ccc(OCC(=O)NC34CCC(NC(=O)COc5ccc(Cl)c(F)c5)(CC3)[C@@H](O)C4)cc2C1=O [Compound 695, 2-(4-chloro-3-fluorophenoxy)-N-[(2S)-2-hydroxy-4-{2-[(2-methyl-3-oxo-2,3-dihydro-1H-isoindol-5-yl)oxy]acetamido}bicyclo[2.2.2]octan-1-yl]acetamide]
Homo sapiens, HEK-293T
  EC50: 500 to 2000 nM

## CN(CCCOc1ccc(Cl)cc1)C12CCC(NC(=O)COc3ccc(Cl)c(F)c3)(CC1)[C@@H](O)C2 [Compound 696, 2-(4-chloro-3-fluorophenoxy)-N-[(2S)-4-{[3-(4-chlorophenoxy)propyl](methyl)amino}-2-hydroxybicyclo[2.2.2]octan-1-yl]acetamide]
Homo sapiens, HEK-293T
  EC50: 10 to 50 nM

## CN(CCC(=O)O)C1CC2(NC(=O)COc3ccc(Cl)c(F)c3)CCC1(NC(=O)COc1ccc(Cl)c(F)c1)CC2 (centres unmarked) [Compound 698, 3-[{1,4-bis[2-(4-chloro-3-fluorophenoxy)acetamido]bicyclo[2.2.2]octan-2-yl}(methyl)amino]propanoic Acid]
Homo sapiens, HEK-293T
  EC50: 250 to 500 nM

## N#CC(COc1ccc(Cl)cc1)NC12CCC(NC(=O)COc3ccc(Cl)c(F)c3)(CC1)[C@@H](O)C2 (stereo partly drawn) [Compound 699, 2-(4-chloro-3-fluorophenoxy)-N-[(2S)-4-{[2-(4-chlorophenoxy)-1-cyanoethyl]amino}-2-hydroxybicyclo[2.2.2]octan-1-yl]acetamide]
Homo sapiens, HEK-293T
  EC50: 10 to 50 nM

## CN(CC(=O)O)C1CC2(NC(=O)COc3ccc(Cl)c(F)c3)CCC1(NC(=O)COc1ccc(Cl)c(F)c1)CC2 (centres unmarked) [Compound 700, [{1,4-bis[2-(4-chloro-3-fluorophenoxy)acetamido]bicyclo[2.2.2]octan-2-yl}(methyl)amino]acetic Acid]
Homo sapiens, HEK-293T
  EC50: 250 to 500 nM

## O=C(COc1ccc(Cl)c(F)c1)NC12CCC(NC(=O)COc3ccc(Cl)c(F)c3)(CC1)C(NC1(CO)COC1)C2 (centres unmarked) [Compound 701, N,N′-(2-{[3-(hydroxymethyl)oxetan-3-yl]amino}bicyclo[2.2.2]octane-1,4-diyl)bis[2-(4-chloro-3-fluorophenoxy)acetamide]]
Homo sapiens, HEK-293T
  EC50: 10 to 50 nM

## O=C(COc1ccc2c(c1)OC(F)(F)C(F)(F)O2)NC12CCC(NC(=O)COc3ccc(Cl)c(F)c3)(CC1)[C@@H](O)C2 [Compound 702, 2-(4-chloro-3-fluorophenoxy)-N-[(2S)-2-hydroxy-4-{2-[(2,2,3,3-tetrafluoro-2,3-dihydro-1,4-benzodioxin-6-yl)oxy]acetamido}bicyclo[2.2.2]octan-1-yl]acetamide]
Homo sapiens, HEK-293T
  EC50: < 10 nM

## O=C(COc1ccc(Cl)c(F)c1)NC12CCC(NCCCOc3ccc(Cl)c(F)c3)(CC1)[C@@H](O)C2 [Compound 703, 2-(4-chloro-3-fluorophenoxy)-N-[(3S)-4-{[3-(4-chloro-3-fluorophenoxy)propyl]amino}-3-hydroxybicyclo[2.2.2]octan-1-yl]acetamide]
Homo sapiens, HEK-293T
  EC50: < 10 nM

## O=C(COc1ccc(Cl)c(F)c1)NC12CC(N(CCCOc3ccc(Cl)c(F)c3)CCCOc3ccc(Cl)c(F)c3)(C1)C2 [Compound 704, N-(3-{bis[3-(4-chloro-3-fluorophenoxy)propyl]amino}bicyclo[1.1.1]pentan-1-yl)-2-(4-chloro-3-fluorophenoxy)acetamide]
Homo sapiens, HEK-293T
  EC50: 250 to 500 nM

## O=C(COc1ccc(Cl)c(F)c1)NC12CC(NCCCOc3ccc(Cl)c(F)c3)(C1)C2 [Compound 705, 2-(4-chloro-3-fluorophenoxy)-N-(3-{[3-(4-chloro-3-fluorophenoxy)propyl]amino}bicyclo[1.1.1]pentan-1-yl)acetamide]
Homo sapiens, HEK-293T
  EC50: 10 to 50 nM

## O=C(COc1ccc(Cl)c(F)c1)NC12CCC(NC(CCOc3ccc(Cl)cc3)C(=O)O)(CC1)C[C@@H]2O (stereo partly drawn) [Compound 706, 2-({(3S)-4-[2-(4-chloro-3-fluorophenoxy)acetamido]-3-hydroxybicyclo[2.2.2]octan-1-yl}amino)-4-(4-chlorophenoxy)butanoic acid]
Homo sapiens, HEK-293T
  EC50: 250 to 500 nM

## O=C(COc1ccc(Cl)c(F)c1)NC12CCC(NC(=O)COc3ccc(Cl)c(F)c3)(CC1)C(NCCO)C2 (centres unmarked) [Compound 707, N,N′-{2-[(2-hydroxyethyl)amino]bicyclo[2.2.2]octane-1,4-diyl}bis[2-(4-chloro-3-fluorophenoxy)acetamide]]
Homo sapiens, HEK-293T
  EC50: < 10 nM

## O=C(COc1ccc(Cl)cc1)NC12CCC(NC(=O)COc3ccc(F)cc3)(CC1)[C@@H](O)C2 [Compound 708, 2-(4-chlorophenoxy)-N-{(3S)-4-[2-(4-fluorophenoxy)acetamido]-3-hydroxybicyclo[2.2.2]octan-1-yl}acetamide]
  EC50: < 10 nM

## O=C(COc1cc(F)c2cn[nH]c2c1)NC12CCC(NC(=O)COc3ccc4cn[nH]c4c3)(CC1)[C@@H](O)C2 [Compound 709]
Homo sapiens, HEK-293T
  EC50: < 10 nM

## O=C(COc1cc(F)c2cn[nH]c2c1)NC12CCC(NC(=O)COc3cc(F)c4cn[nH]c4c3)(CC1)[C@@H](O)C2 [Compound 710, N,N′-[(2S)-2-hydroxybicyclo[2.2.2]octane-1,4-diyl]bis{2-[(4-fluoro-1H-indazol-6-yl)oxy]acetamide}]
Homo sapiens, HEK-293T
  EC50: < 10 nM

## CN(CCO)C1CC2(NC(=O)COc3ccc(Cl)c(F)c3)CCC1(NC(=O)COc1ccc(Cl)c(F)c1)CC2 (centres unmarked) [Compound 711, N,N′-{2-[(2-hydroxyethyl)(methyl)amino]bicyclo[2.2.2]octane-1,4-diyl}bis[2-(4-chloro-3-fluorophenoxy)acetamide]]
Homo sapiens, HEK-293T
  EC50: < 10 nM

## CNC(CC(=O)NC12CCC(NC(=O)COc3ccc(Cl)c(F)c3)(CC1)[C@@H](O)C2)c1ccc(Cl)cc1 (stereo partly drawn) [Compound 712, N-{(3S)-4-[2-(4-chloro-3-fluorophenoxy)acetamido]-3-hydroxybicyclo[2.2.2]octan-1-yl}-3-(4-chlorophenyl)-3-(methylamino)propanamide]
Homo sapiens, HEK-293T
  EC50: 500 to 2000 nM

## O=C(CC(NC1COC1)c1ccc(Cl)cc1)NC12CCC(NC(=O)COc3ccc(Cl)c(F)c3)(CC1)[C@@H](O)C2 (stereo partly drawn) [Compound 713, N-{(3S)-4-[2-(4-chloro-3-fluorophenoxy)acetamido]-3-hydroxybicyclo[2.2.2]octan-1-yl}-3-(4-chlorophenyl)-3-[(oxetan-3-yl)amino]propanamide]
Homo sapiens, HEK-293T
  EC50: > 2000 nM

## O=C(COc1ccc(Cl)c(F)c1)NC12CCC(NC(=O)COc3ccc(Cl)c(F)c3)(CC1)C(NCC(F)(F)F)C2 (centres unmarked) [Compound 714, N,N′-{2-[(2,2,2-trifluoroethyl)amino]bicyclo[2.2.2]octane-1,4-diyl}bis[2-(4-chloro-3-fluorophenoxy)acetamide]]
Homo sapiens, HEK-293T
  EC50: 10 to 50 nM

## O=C(COc1ccc(Cl)c(F)c1)NC12CCC(NC(=O)COc3ccc(Cl)c(F)c3)(CC1)C(N1CC(F)(F)C1)C2 (centres unmarked) [Compound 715, N,N′-[2-(3,3-difluoroazetidin-1-yl)bicyclo[2.2.2]octane-1,4-diyl]bis[2-(4-chloro-3-fluorophenoxy)acetamide]]
Homo sapiens, HEK-293T
  EC50: 10 to 50 nM

## COCC1CC2(NC(=O)COc3ccc(Cl)c(F)c3)CCC1(NC(=O)COc1ccc(Cl)c(F)c1)CC2 (centres unmarked) [Compound 716, N,N′-[2-(methoxymethyl)bicyclo[2.2.2]octane-1,4-diyl]bis[2-(4-chloro-3-fluorophenoxy)acetamide]]
Homo sapiens, HEK-293T
  EC50: 10 to 50 nM

## O=C(COc1ccc(Cl)c(F)c1)NC12C=C(C(=O)O)C(NC(=O)COc3ccc(Cl)c(F)c3)(CC1)CC2 [Compound 717, 1,4-bis[2-(4-chloro-3-fluorophenoxy)acetamido]bicyclo[2.2.2]oct-2-ene-2-carboxylic Acid]
Homo sapiens, HEK-293T
  EC50: 50 to 250 nM

## COC(=O)C1=CC2(NC(=O)COc3ccc(Cl)c(F)c3)CCC1(NC(=O)COc1ccc(Cl)c(F)c1)CC2 [Compound 718, methyl 1,4-bis[2-(4-chloro-3-fluorophenoxy)acetamido]bicyclo[2.2.2]oct-2-ene-2-carboxylate]
Homo sapiens, HEK-293T
  EC50: < 10 nM

## O=C(COc1ccc(Cl)c(F)c1)NC12CCC(NC(=O)COc3ccc(Cl)c(F)c3)(CC1)C(N1CC(O)C1)C2 (centres unmarked) [Compound 719, N,N′-[2-(3-hydroxyazetidin-1-yl)bicyclo[2.2.2]octane-1,4-diyl]bis[2-(4-chloro-3-fluorophenoxy)acetamide]]
Homo sapiens, HEK-293T
  EC50: 10 to 50 nM

## O=C(COc1cc(F)c2cn[nH]c2c1)NC12CCC(NC(=O)COc3ccc(C(F)(F)F)nc3)(CC1)[C@@H](O)C2 [Compound 720]
Homo sapiens, HEK-293T
  EC50: < 10 nM

## O=C(COc1cc(F)c2cn[nH]c2c1)NC12CCC(NC(=O)COc3ccc(F)cc3)(CC1)[C@@H](O)C2 [Compound 721]
Homo sapiens, HEK-293T
  EC50: < 10 nM

## O=C(COc1ccc(Cl)c(F)c1)NC12CCC(NC(=O)COc3ccc(Cl)c(F)c3)(CC1)C(NC1COC1)C2 (centres unmarked) [Compound 722, N,N′-{2-[(oxetan-3-yl)amino]bicyclo[2.2.2]octane-1,4-diyl}bis[2-(4-chloro-3-fluorophenoxy)acetamide]]
Homo sapiens, HEK-293T
  EC50: < 10 nM

## CCCC1CC2(NC(=O)COc3ccc(Cl)c(F)c3)CCC1(NC(=O)COc1ccc(Cl)c(F)c1)CC2 (centres unmarked) [Compound 723, N,N′-(2-propylbicyclo[2.2.2]octane-1,4-diyl)bis[2-(4-chloro-3-fluorophenoxy)acetamide]]
Homo sapiens, HEK-293T
  EC50: 10 to 50 nM
